Data published in ChEMBL document CHEMBL5316327, “Design and Synthesis of Orally Active Quinolyl Pyrazinamides as Sigma 2 Receptor Ligands for the Treatment of Pancreatic Cancer” (J Med Chem, 2023).
Activity calls are given as the source filed them. The calls are words filed in the database; no cut-off is given here.

Biological target: Sigma non-opioid intracellular receptor 1 (Homo sapiens, UniProt Q99720)
Assay: Displacement of [3H](+)-pentazocine from human sigma 1 receptor transfected in human HEK293T cells assessed as inhibition constant by radioligand competition binding assay
Type: cell-based
Conditions: not given

Sigma non-opioid intracellular receptor 1, sequence (Q99720 whole entry): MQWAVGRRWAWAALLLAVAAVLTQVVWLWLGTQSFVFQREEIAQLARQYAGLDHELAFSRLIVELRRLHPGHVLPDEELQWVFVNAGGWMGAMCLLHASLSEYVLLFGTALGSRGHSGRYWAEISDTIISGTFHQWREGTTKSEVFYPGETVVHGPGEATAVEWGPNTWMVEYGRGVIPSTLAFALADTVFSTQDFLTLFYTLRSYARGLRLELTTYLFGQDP

Ki [nM]	SMILES
677	Cc1cc(NC(=O)c2cnc(NCCN3CCNCC3)cn2)c2ncccc2c1
250	CCN(CC)CCCC(C)Nc1cnc(C(=O)Nc2cc(C)cc3cccnc23)cn1 (stereo not given)
356	CCN(CC)CCCC(C)Nc1cnc(C(=O)Nc2ccc(Cl)c3ccc(OC)nc23)cn1 (stereo not given)
405	CCN(CC)CCCC(C)Nc1cnc(C(=O)Nc2cc(C#N)cc3cccnc23)cn1 (stereo not given)
166	Cc1cc(NC(=O)c2cnc(N3CCN(CCN)CC3)cn2)c2ncccc2c1
137	CCN(CC)CCCC(C)Nc1cnc(C(=O)Nc2cc(OC)cc3cccnc23)cn1 (stereo not given)
508	Cc1cc(NC(=O)c2cnc(S(=O)(=O)NCCN(C)C)cn2)c2ncccc2c1
1270	CCN(CC)CCCC(C)Nc1cnc(C(=O)Nc2cc(O)cc3cccnc23)cn1 (stereo not given)
385	CCN(CC)CCCC(C)Nc1cnc(C(=O)Nc2cc(C(F)(F)F)cc3cccnc23)cn1 (stereo not given)
46	CCN(CC)CCCC(C)Nc1cnc(C(=O)Nc2cc(Br)cc3cccnc23)cn1 (stereo not given)
71	CCN(CC)CCCC(C)Nc1cnc(C(=O)Nc2cc(C3CC3)cc3cccnc23)cn1 (stereo not given)
463	CCN(CC)CCCC(C)NCC(=O)Nc1cc(C)cc2cccnc12 (stereo not given)
196	CCN(CC)CCCC(C)Nc1cnc(C(=O)Nc2cccc3cccnc23)cn1 (stereo not given)

Biological target: Sigma intracellular receptor 2 (Homo sapiens, UniProt Q5BJF2)
Sequence (Q5BJF2 whole entry): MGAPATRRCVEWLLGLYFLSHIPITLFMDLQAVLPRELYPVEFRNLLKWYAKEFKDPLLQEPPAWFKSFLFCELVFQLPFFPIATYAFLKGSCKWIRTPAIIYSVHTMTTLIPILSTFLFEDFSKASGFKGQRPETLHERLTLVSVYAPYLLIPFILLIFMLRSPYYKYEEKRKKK
Assay: Displacement of [3H][…]ditolylguanidine from human sigma 2 receptor transfected in human HEK293T cells assessed as inhibition constant by radioligand competition binding assay
Type: cell-based
Conditions: not given

Ki [nM]	SMILES
2660	CCN(CC)CCCC(C)Nc1cnc(C(=O)Nc2c(C)ccc3cccnc23)cn1 (stereo not given)
400	Cc1cc(NC(=O)c2cnc(NCCN3CCNCC3)cn2)c2ncccc2c1
85	CCN(CC)CCCC(C)Nc1cnc(C(=O)Nc2cc(C)cc3cccnc23)cn1 (stereo not given)
79	CCN(CC)CCCC(C)Nc1cnc(C(=O)Nc2ccc(Cl)c3ccc(OC)nc23)cn1 (stereo not given)
108	CCN(CC)CCCC(C)Nc1cnc(C(=O)Nc2cc(C#N)cc3cccnc23)cn1 (stereo not given)
129	Cc1cc(NC(=O)c2cnc(N3CCN(CCN)CC3)cn2)c2ncccc2c1
13	CCN(CC)CCCC(C)Nc1cnc(C(=O)Nc2cc(OC)cc3cccnc23)cn1 (stereo not given)
2150	Cc1cc(NC(=O)c2cnc(S(=O)(=O)NCCN(C)C)cn2)c2ncccc2c1
458	CCN(CC)CCCC(C)Nc1cnc(C(=O)Nc2cc(O)cc3cccnc23)cn1 (stereo not given)
1630	CCN(CC)CCCC(C)Nc1cnc(C(=O)Nc2c(OC)ccc3cccnc23)cn1 (stereo not given)
155	CCN(CC)CCCC(C)Nc1cnc(C(=O)Nc2cc(C(F)(F)F)cc3cccnc23)cn1 (stereo not given)
27	CCN(CC)CCCC(C)Nc1cnc(C(=O)Nc2cc(Br)cc3cccnc23)cn1 (stereo not given)
27	CCN(CC)CCCC(C)Nc1cnc(C(=O)Nc2cc(C3CC3)cc3cccnc23)cn1 (stereo not given)
52	CCN(CC)CCCC(C)NCC(=O)Nc1cc(C)cc2cccnc12 (stereo not given)
22	CCN(CC)CCCC(C)Nc1cnc(C(=O)Nc2cccc3cccnc23)cn1 (stereo not given)

Tested on: not listed separately
Assay: Metabolic stability in mouse liver microsomes assessed as half life at 10 uM measured upto 60 mins in presence of NADPH by LC-MS/MS analysis
Type: ADME, Microsome
Conditions: 1 h

t1/2 [min]	SMILES
21	CCN(CC)CCCC(C)Nc1cnc(C(=O)Nc2cc(C)cc3cccnc23)cn1 (stereo not given)
6	Cc1cc(NC(=O)c2cnc(S(=O)(=O)NCCN(C)C)cn2)c2ncccc2c1

Tested on: not listed separately
Assay: Cytotoxicity against HFF-1 cells measured after 72 hrs by MTT assay
Type: toxicity, cell-based
Conditions: human

SMILES	IC50 at 72 h [nM]
O=C(Nc1cccc2cccnc12)c1cnccn1	> 30000

Tested on: not listed separately
Assay: Cytotoxicity against HEK293 cells measured after 72 hrs by MTT assay
Type: toxicity, cell-based
Conditions: human

SMILES	IC50 at 72 h [nM]
Nc1ccn([C@@H]2O[C@H](CO)[C@@H](O)C2(F)F)c(=O)n1 [GEMCITABINE]	100
O=C(Nc1cccc2cccnc12)c1cnccn1	200

Tested on: not listed separately
Assay: Cytotoxicity against HPDE cells measured after 72 hrs by MTT assay
Type: toxicity, cell-based
Conditions: human

SMILES	IC50 at 72 h [nM]
Nc1ccn([C@@H]2O[C@H](CO)[C@@H](O)C2(F)F)c(=O)n1 [GEMCITABINE]	1
O=C(Nc1cccc2cccnc12)c1cnccn1	600

Tested on: MIA PaCa-2
Assay: Upregulation of GRP78 in human MIA PaCa-2 cells at 10 to 30 uM measured after 24 hrs by Western blot analysis
Type: functional, cell-based
Conditions: dose 10-30 µM

SMILES	Activity
O=C(CN1CCC(CN2Cc3ccccc3C2=O)CC1)c1ccc(F)cc1	Active
Fc1ccc(-n2cc(CCCCN3CCC4(CC3)OCc3ccccc34)c3ccccc32)cc1	Active

Tested on: MIA PaCa-2
Assay: Antagonistic cytotoxicity against human MIA PaCa-2 cells at 0.001 to 0.1 uM measured after 7 days in presence of ammonium tetrathiomolybdate by crystal violet staining based analysis
Type: functional, cell-based
Conditions: dose 0.001-0.1 µM, time 7.0 day

SMILES	Activity
O=C(Nc1cccc2cccnc12)c1cnccn1	Active

Tested on: MIA PaCa-2
Assay: Synergistic cytotoxicity against human MIA PaCa-2 cells at 0.001 to 0.1 uM measured after 7 days in presence of copper chloride by crystal violet staining based analysis
Type: functional, cell-based
Conditions: dose 0.001-0.1 µM, time 7.0 day

SMILES	Activity
O=C(Nc1cccc2cccnc12)c1cnccn1	Active

Tested on: MIA PaCa-2
Assay: Inhibition of colony formation in human MIA PaCa-2 cells at 0.04 to 30 uM pretreated with ammonium tetrathiomolybdate for 4 hrs followed by compound addition and measured after 6 days
Type: functional, cell-based
Conditions: dose 0.04-30 µM, time 6.0 day

SMILES	inhibition
O=C(Nc1cccc2cccnc12)c1cnccn1	inactive

Tested on: HCT-116
Assay: Inhibition of colony formation in human HCT-116 cells at 0.04 to 30 uM pretreated with ammonium tetrathiomolybdate for 4 hrs followed by compound addition and measured after 6 days
Type: functional, cell-based
Conditions: dose 0.04-30 µM, time 6.0 day

SMILES	inhibition
O=C(Nc1cccc2cccnc12)c1cnccn1	inactive

Tested on: MIA PaCa-2
Assay: cells
Conditions: Homo sapiens, MIA PaCa-2, 72 h

IC50 [nM]	SMILES
20000	O=C(CCNc1cnc(C(=O)Nc2cc(F)cc3cccnc23)cn1)NO
> 30000	CCN(CC)CCCC(C)Nc1cnc(C(=O)Nc2c(C)ccc3cccnc23)cn1 (stereo not given)
1200	COCCNc1cnc(C(=O)Nc2cc(F)cc3cccnc23)cn1
15600	Cc1cc(NC(=O)c2cnc(NCCN3CCNCC3)cn2)c2ncccc2c1
1100	CCN(CC)CCCC(C)Nc1cnc(C(=O)Nc2cc(C)cc3cccnc23)cn1 (stereo not given)
> 30000	O=C(Nc1cc(F)cc2cccnc12)c1cnc(NS(=O)(=O)CCC(F)(F)F)cn1
5400	CCN(CC)CCCC(C)Nc1cnc(C(=O)Nc2ccc(Cl)c3ccc(OC)nc23)cn1 (stereo not given)
10100	CCN(CC)CCCC(C)Nc1cnc(C(=O)Nc2cc(C#N)cc3cccnc23)cn1 (stereo not given)
7400	Cc1cc(NC(=O)c2cnc(N3CCN(CCN)CC3)cn2)c2ncccc2c1
2300	CCN(CC)CCCC(C)Nc1cnc(C(=O)Nc2cc(OC)cc3cccnc23)cn1 (stereo not given)
600	Cc1cc(NC(=O)c2cnc(S(=O)(=O)NCCN(C)C)cn2)c2ncccc2c1
7900	CCN(CC)CCCC(C)Nc1cnc(C(=O)Nc2cc(O)cc3cccnc23)cn1 (stereo not given)
2600	CCCNc1cnc(C(=O)Nc2cc(F)cc3cccnc23)cn1
> 30000	CCN(CC)CCCC(C)Nc1cnc(C(=O)Nc2c(OC)ccc3cccnc23)cn1 (stereo not given)
4900	CCN(CC)CCCC(C)Nc1cnc(C(=O)Nc2cc(C(F)(F)F)cc3cccnc23)cn1 (stereo not given)
1600	CCN(CC)CCCC(C)Nc1cnc(C(=O)Nc2cc(Br)cc3cccnc23)cn1 (stereo not given)
3000	CCN(CC)CCCC(C)Nc1cnc(C(=O)Nc2cc(C3CC3)cc3cccnc23)cn1 (stereo not given)
> 30000	CCN(CC)CCCC(C)NCC(=O)Nc1cc(C)cc2cccnc12 (stereo not given)
3700	CCN(CC)CCCC(C)Nc1cnc(C(=O)Nc2cccc3cccnc23)cn1 (stereo not given)
> 30000	CC(C)CS(=O)(=O)Nc1cnc(C(=O)Nc2cc(F)cc3cccnc23)cn1

Tested on: PANC-1
Assay: cells
Conditions: Homo sapiens, PANC-1, 72 h

IC50 [nM]	SMILES
1700	O=C(Nc1cccc2cccnc12)c1cnccn1

Tested on: BXPC-3
Assay: cells
Conditions: Homo sapiens, BXPC-3, 72 h

IC50 [nM]	SMILES
1800	O=C(Nc1cccc2cccnc12)c1cnccn1

Tested on: Panc02
Assay: cells
Conditions: Mus musculus, Panc02, 72 h

IC50 [nM]	SMILES
300	O=C(Nc1cccc2cccnc12)c1cnccn1

Tested on: not listed separately
Assay: cells
Conditions: Mus musculus, KPC2, 72 h

IC50 [nM]	SMILES
200	O=C(Nc1cccc2cccnc12)c1cnccn1
